The text below walks through data of patent publication US10428017B2, “Modulators of the cystic fibrosis transmembrane conductance regulator protein and methods of use” (AbbVie S.à.r.l., priority 2017, dated 2019).

Like-named read-outs stand apart in the source and are kept apart here.

This experiment concerns the target T1, F508delCFTR (Homo sapiens, UniProt P13569, DEL508-508).
T1 construct: expressed in transfected cells; host or cells: CFBE4lo-F508delCFTR-HRP cells (human lung derived epithelial cell line, doxycycline-inducible)
The experiment can be described thus: Cell Surface Expression-Horse Radish Peroxidase (CSE-HRP) Assay. The settings on record: for EC50: CFBE4lo-F508delCFTR-HRP cells, 18-24 hours at 33° C.; for Emax / Maximum % activity (with co-corrector): maximum at any tested concentration (up to 20 μM), normalized to on-plate positive control (2 μM co-corrector); for Maximum % activity (with co-corrector): with co-corrector 2 μM. The format is cell-based. Summed up:
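CFBE4lo− cells expressing F508delCFTR with HRP in the fourth exofacial loop, induced 72 h with 0.5 μg/mL doxycycline, then treated 18-24 h at 33° C, alone or with 2 μM co-corrector (8 points, 3-fold, top 20 μM). Luminol luminescence after washing; % activity normalized to DMSO and 2 μM positive control; sigmoidal EC50 from triplicate plates.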

The mark [1] stands for this setting: test compound without co-corrector, HRP luminescence readout, read-out: EC50 (without co-corrector).
Where [2] appears, read: test compound without co-corrector.
Where [3] appears, read: with co-corrector 2 μM 3-[(2R,4R)-4-({[1-(2,2-difluoro-1,3-benzodioxol-5-yl)cyclopropyl]carbonyl}amino)-7-methoxy-3,4-dihydro-2H-chromen-2-yl]benzoic acid, read-out: EC50 (with co-corrector).

T1 sequence (P13569 with tags, fused parts or gaps DEL508-508): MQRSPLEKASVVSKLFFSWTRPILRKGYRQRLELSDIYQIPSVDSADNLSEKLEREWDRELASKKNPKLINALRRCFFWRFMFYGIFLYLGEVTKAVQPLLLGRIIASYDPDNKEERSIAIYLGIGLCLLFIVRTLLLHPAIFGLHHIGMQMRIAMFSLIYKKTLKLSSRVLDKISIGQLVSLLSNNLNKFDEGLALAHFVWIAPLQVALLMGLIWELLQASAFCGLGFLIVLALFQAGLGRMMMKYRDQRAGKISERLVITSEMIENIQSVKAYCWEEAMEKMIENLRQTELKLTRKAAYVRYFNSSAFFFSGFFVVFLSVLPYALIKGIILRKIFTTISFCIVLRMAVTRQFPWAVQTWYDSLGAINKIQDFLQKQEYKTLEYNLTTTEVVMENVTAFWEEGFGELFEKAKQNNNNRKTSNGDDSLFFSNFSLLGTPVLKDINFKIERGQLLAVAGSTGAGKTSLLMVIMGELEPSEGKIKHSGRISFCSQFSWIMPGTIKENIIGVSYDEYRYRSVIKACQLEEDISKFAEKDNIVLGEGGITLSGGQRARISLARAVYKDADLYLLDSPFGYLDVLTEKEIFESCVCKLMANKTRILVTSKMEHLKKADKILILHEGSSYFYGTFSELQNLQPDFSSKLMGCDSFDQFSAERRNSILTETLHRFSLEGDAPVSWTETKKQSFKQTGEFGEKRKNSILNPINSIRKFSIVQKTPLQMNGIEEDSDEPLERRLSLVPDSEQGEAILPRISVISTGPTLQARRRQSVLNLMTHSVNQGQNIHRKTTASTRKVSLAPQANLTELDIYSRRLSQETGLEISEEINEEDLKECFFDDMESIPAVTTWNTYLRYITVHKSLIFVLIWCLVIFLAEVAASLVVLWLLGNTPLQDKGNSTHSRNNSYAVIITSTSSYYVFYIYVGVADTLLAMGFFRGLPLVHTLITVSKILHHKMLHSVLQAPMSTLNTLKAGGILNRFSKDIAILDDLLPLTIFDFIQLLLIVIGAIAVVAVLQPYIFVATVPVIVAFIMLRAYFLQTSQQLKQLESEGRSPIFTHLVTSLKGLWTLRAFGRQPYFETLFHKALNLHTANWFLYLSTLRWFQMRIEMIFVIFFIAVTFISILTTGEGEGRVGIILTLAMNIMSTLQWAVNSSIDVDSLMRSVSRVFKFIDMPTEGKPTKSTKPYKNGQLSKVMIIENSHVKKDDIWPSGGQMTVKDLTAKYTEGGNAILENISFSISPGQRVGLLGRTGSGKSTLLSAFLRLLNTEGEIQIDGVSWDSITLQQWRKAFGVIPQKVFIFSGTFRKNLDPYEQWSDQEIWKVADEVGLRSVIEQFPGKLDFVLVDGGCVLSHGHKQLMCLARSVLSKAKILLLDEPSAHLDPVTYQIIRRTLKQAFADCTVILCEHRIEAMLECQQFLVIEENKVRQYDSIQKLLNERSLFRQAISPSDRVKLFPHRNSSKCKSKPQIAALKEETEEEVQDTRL

With `COc1ccc(Br)c2c1C(C(=O)NS(=O)(=O)c1cccc3ccccc13)CC1(CCCCC1)O2` (stereo not shown) [Example 41, 8-bromo-5-methoxy-N-(naphthalene-1-sulfonyl)-3,4-dihydrospiro[1-benzopyran-2,1′-cyclohexane]-4-carboxamide], the “Maximum % activity (with co-corrector)” value was “+++ (≥350)”. Moreover, under setting [1], the EC50 is less than 3 µM. This molecule registered an Emax under setting [2] of no less than 150%. Moreover, the concentration giving a half-maximal response (EC50) under setting [3] was less than 3 µM.

For the molecule `COc1ccc(Br)c2c1C(C(=O)NS(=O)(=O)c1cccc3cccnc13)CCO2` (stereo not shown) [Example 42, 8-bromo-5-methoxy-N-(quinoline-8-sulfonyl)-3,4-dihydro-2H-1-benzopyran-4-carboxamide], the “Maximum % activity (with co-corrector)” value is listed as “+++ (≥350)”. Also, the EC50 under setting [1] was in the range of 3 to 10 µM. The same molecule displayed a maximum response (Emax) under setting [2] of 50 to 150%. Further, the EC50 under setting [3] is less than 3 µM.

Consider `O=C(NS(=O)(=O)c1cccc2ccccc12)C1COc2c(Cl)cccc21` (stereo not shown) [Example 43, 7-chloro-N-(naphthalene-1-sulfonyl)-2,3-dihydro-1-benzofuran-3-carboxamide], for which the “Maximum % activity (with co-corrector)” value is “++ (≥150 and <350)”. Also, under setting [1], the EC50 is 3 to 10 µM. This molecule also had an Emax under setting [2] of less than 50%. Also, under setting [3], the EC50 lay within 3 to 10 µM.

As to `CCC1(C(=O)NS(=O)(=O)c2cccc3ccccc23)COc2c(Cl)cccc21` (stereo not shown) [Example 44, 7-chloro-3-ethyl-N-(naphthalene-1-sulfonyl)-2,3-dihydro-1-benzofuran-3-carboxamide], the “Maximum % activity (with co-corrector)” value is given as “+++ (≥350)”. Also, the half-maximal effective concentration (EC50) under setting [1] was in the range of 3 to 10 µM. This molecule gave a maximum response (Emax) under setting [2] of 50 to 150%. Also, the concentration for a half-maximal effect (EC50) under setting [3] fell in the range of 3 to 10 µM.

On to `O=C(NS(=O)(=O)c1cccc2ccccc12)C1COc2c1cccc2C(F)(F)F` (stereo not shown) [Example 45, N-(naphthalene-1-sulfonyl)-7-(trifluoromethyl)-2,3-dihydro-1-benzofuran-3-carboxamide], for which the “Maximum % activity (with co-corrector)” value was “++ (≥150 and <350)”. For the same molecule, the 50% effective concentration (EC50) under setting [1] is 3 to 10 µM. Moreover, under setting [2], the maximal response (Emax) was in the range of 50 to 150%. Also, the EC50 under setting [3] fell in the range of 3 to 10 µM.

`COc1ccc(Br)c2c1C(C(=O)NS(=O)(=O)c1cccc3ncccc13)CC(C)(C)O2` (stereo not shown) [Example 46, 8-bromo-5-methoxy-2,2-dimethyl-N-(quinoline-5-sulfonyl)-3,4-dihydro-2H-1-benzopyran-4-carboxamide]: the “Maximum % activity (with co-corrector)” value is “+++ (≥350)”. Moreover, under setting [1], the EC50 is less than 3 µM. This molecule registered an Emax under setting [2] of no less than 150%. In addition, the EC50 under setting [3] is less than 3 µM.

As to `COc1cccc2c1C(C(=O)NS(=O)(=O)c1cccc3cccnc13)CC(C)(C)O2` (stereo not shown) [Example 47, 5-methoxy-2,2-dimethyl-N-(quinoline-8-sulfonyl)-3,4-dihydro-2H-1-benzopyran-4-carboxamide], the “Maximum % activity (with co-corrector)” value is “++ (≥150 and <350)”. Besides, the EC50 under setting [1] fell in the range of 3 to 10 µM. This molecule came in with an Emax under setting [2] of less than 50%. Besides, the concentration for a half-maximal effect (EC50) under setting [3] fell in the range of 3 to 10 µM.

As for `COc1cccc2c1C(C(=O)NS(=O)(=O)c1cccc3ncccc13)CC(C)(C)O2` (stereo not shown) [Example 48, 5-methoxy-2,2-dimethyl-N-(quinoline-5-sulfonyl)-3,4-dihydro-2H-1-benzopyran-4-carboxamide], the “Maximum % activity (with co-corrector)” value is reported as “+++ (≥350)”. The EC50 under setting [1] was 3 to 10 µM. The molecule also displayed an Emax under setting [2] of no less than 150%. Besides, the 50% effective concentration (EC50) under setting [3] fell in the range of 3 to 10 µM.

In the case of `COc1cccc2c1C(C(=O)NS(=O)(=O)c1cccc3ccccc13)CC(C)(C)O2` (stereo not shown) [Example 49, 5-methoxy-2,2-dimethyl-N-(naphthalene-1-sulfonyl)-3,4-dihydro-2H-1-benzopyran-4-carboxamide], the “Maximum % activity (with co-corrector)” value is on record as “+++ (≥350)”. Under setting [1], the half-maximal effective concentration (EC50) fell in the range of 3 to 10 µM. Besides, the Emax under setting [2] is no less than 150%. Further, under setting [3], the EC50 is less than 3 µM.

With `COc1ccc(C#N)c2c1C(C(=O)NS(=O)(=O)c1cccc3ccccc13)CC(C)(C)O2` (stereo not shown) [Example 50, 8-cyano-5-methoxy-2,2-dimethyl-N-(naphthalene-1-sulfonyl)-3,4-dihydro-2H-1-benzopyran-4-carboxamide], the “Maximum % activity (with co-corrector)” value is “+++ (≥350)”. The 50% effective concentration (EC50) under setting [1] was 3 to 10 µM. Also, under setting [2], the Emax was in the range of 50 to 150%. The EC50 under setting [3] was less than 3 µM.

As for `COc1ccc(Cl)c2c1C(C(=O)NS(=O)(=O)c1cccc3ccccc13)CC(C)(C)O2` (stereo not shown) [Example 51, 8-chloro-5-methoxy-2,2-dimethyl-N-(naphthalene-1-sulfonyl)-3,4-dihydro-2H-1-benzopyran-4-carboxamide], the “Maximum % activity (with co-corrector)” value is recorded as “+++ (≥350)”. Under setting [1], the half-maximal effective concentration (EC50) was less than 3 µM. Further, the Emax under setting [2] is no less than 150%. Under setting [3], the EC50 was less than 3 µM.

Regarding `COc1ccc(Br)c2c1C(C(=O)NS(=O)(=O)c1cccc3ccccc13)CC(C)(C)O2` (stereo not shown) [Example 52, 8-bromo-5-methoxy-2,2-dimethyl-N-(naphthalene-1-sulfonyl)-3,4-dihydro-2H-1-benzopyran-4-carboxamide], the “Maximum % activity (with co-corrector)” value is “+++ (≥350)”. In addition, the EC50 under setting [1] is less than 3 µM. The molecule also showed an Emax under setting [2] of no less than 150%. In addition, the concentration for a half-maximal effect (EC50) under setting [3] is less than 3 µM.

In the case of `COc1ccc(C(F)(F)F)c2c1C(C(=O)NS(=O)(=O)c1cccc3ccccc13)CCO2` (stereo not shown) [Example 53, 5-methoxy-N-(naphthalene-1-sulfonyl)-8-(trifluoromethyl)-3,4-dihydro-2H-1-benzopyran-4-carboxamide], the “Maximum % activity (with co-corrector)” value is on record as “+++ (≥350)”. For the same molecule, under setting [1], the 50% effective concentration (EC50) is less than 3 µM. This molecule also came in with a maximal response (Emax) under setting [2] of no less than 150%. Also, the EC50 under setting [3] was less than 3 µM.

As to `COc1ccc(C2CCC2)c2c1C(C(=O)NS(=O)(=O)c1cccc3ncccc13)CCO2` (stereo not shown) [Example 54, 8-cyclobutyl-5-methoxy-N-(quinoline-5-sulfonyl)-3,4-dihydro-2H-1-benzopyran-4-carboxamide], the “Maximum % activity (with co-corrector)” value is on record as “+++ (≥350)”. Moreover, under setting [1], the EC50 lay in the range of 3 to 10 µM. The maximal response (Emax) under setting [2] was no less than 150%. Moreover, the 50% effective concentration (EC50) under setting [3] was less than 3 µM.

On to `COc1ccc(C2CCC2)c2c1[C@@H](C(=O)NS(=O)(=O)c1cccc3ccccc13)CCO2` [Example 55, (4S)-8-cyclobutyl-5-methoxy-N-(naphthalene-1-sulfonyl)-3,4-dihydro-2H-1-benzopyran-4-carboxamide], for which the “Maximum % activity (with co-corrector)” value is “+++ (≥350)”. Besides, the 50% effective concentration (EC50) under setting [1] lay within 3 to 10 µM. Under setting [2], this molecule had a maximal effect (Emax) of no less than 150%. Further, the EC50 under setting [3] lay in the range of 3 to 10 µM.

Regarding `COc1ccc(C2CCC2)c2c1[C@H](C(=O)NS(=O)(=O)c1cccc3ccccc13)CCO2` [Example 56, (4R)-8-cyclobutyl-5-methoxy-N-(naphthalene-1-sulfonyl)-3,4-dihydro-2H-1-benzopyran-4-carboxamide], the “Maximum % activity (with co-corrector)” value is reported as “+++ (≥350)”. Moreover, the EC50 under setting [1] is less than 3 µM. The molecule further had an Emax under setting [2] of no less than 150%. Further, the EC50 under setting [3] is less than 3 µM.

For the molecule `COc1ccc(C(F)(F)F)c2c1[C@@H](C(=O)NS(=O)(=O)c1cccc3ccccc13)CCO2` [Example 57, (4S)-5-methoxy-N-(naphthalene-1-sulfonyl)-8-(trifluoromethyl)-3,4-dihydro-2H-1-benzopyran-4-carboxamide], the “Maximum % activity (with co-corrector)” value is reported as “+++ (≥350)”. Besides, under setting [1], the half-maximal effective concentration (EC50) lay within 3 to 10 µM. This molecule also displayed an Emax under setting [2] of no less than 150%. Further, under setting [3], the EC50 was less than 3 µM.

`COc1ccc(C(F)(F)F)c2c1[C@H](C(=O)NS(=O)(=O)c1cccc3ccccc13)CCO2` [Example 58, (4R)-5-methoxy-N-(naphthalene-1-sulfonyl)-8-(trifluoromethyl)-3,4-dihydro-2H-1-benzopyran-4-carboxamide]: the “Maximum % activity (with co-corrector)” value is “+++ (≥350)”. Besides, the concentration for a half-maximal effect (EC50) under setting [1] was less than 3 µM. The maximum response (Emax) under setting [2] was no less than 150%. The EC50 under setting [3] was less than 3 µM.

Turning to `COc1ccc(C2CCC2)c2c1[C@@H](C(=O)NS(=O)(=O)c1cccc3ncccc13)CCO2` [Example 59, (4S)-8-cyclobutyl-5-methoxy-N-(quinoline-5-sulfonyl)-3,4-dihydro-2H-1-benzopyran-4-carboxamide], the “Maximum % activity (with co-corrector)” value is recorded as “+++ (≥350)”. The half-maximal effective concentration (EC50) under setting [1] was in the range of 3 to 10 µM. The molecule also had a maximal response (Emax) under setting [2] of no less than 150%. For the same molecule, the EC50 under setting [3] is 3 to 10 µM.

Consider `COc1ccc(C2CCC2)c2c1[C@H](C(=O)NS(=O)(=O)c1cccc3ncccc13)CCO2` [Example 60, (4R)-8-cyclobutyl-5-methoxy-N-(quinoline-5-sulfonyl)-3,4-dihydro-2H-1-benzopyran-4-carboxamide], for which the “Maximum % activity (with co-corrector)” value was “+++ (≥350)”. Under setting [1], the EC50 is less than 3 µM. In addition, the maximum response (Emax) under setting [2] was no less than 150%. Further, the EC50 under setting [3] was less than 3 µM.

Turning to `CCC1(C(=O)NS(=O)(=O)c2cccc3ccccc23)COc2c(C(F)(F)F)cccc21` (stereo not shown) [Example 61, 3-ethyl-N-(naphthalene-1-sulfonyl)-7-(trifluoromethyl)-2,3-dihydro-1-benzofuran-3-carboxamide], the “Maximum % activity (with co-corrector)” value is listed as “+++ (≥350)”. Under setting [1], the concentration for a half-maximal effect (EC50) lay in the range of 3 to 10 µM. Under setting [2], the maximum response (Emax) is no less than 150%. Further, the EC50 under setting [3] was in the range of 3 to 10 µM.

As to `COc1ccc(OC)c2c1OCC2C(=O)NS(=O)(=O)c1cccc2ccccc12` (stereo not shown) [Example 62, 4,7-dimethoxy-N-(naphthalene-1-sulfonyl)-2,3-dihydro-1-benzofuran-3-carboxamide], the “Maximum % activity (with co-corrector)” value was “+++ (≥350)”. Besides, the EC50 under setting [1] lay within 3 to 10 µM. Also, the maximal effect (Emax) under setting [2] is no less than 150%. For the same molecule, under setting [3], the concentration giving a half-maximal response (EC50) was in the range of 3 to 10 µM.
